Patent US11753446B2, “Beta-hairpin peptidomimetics” (POLYPHOR AG, priority 2014, dated 2023)
Read-outs that look alike come from different tables or passages of the source. Where a SMILES comes first, the peptide text is derived from it. Bridges are numbered along the chain shown (N, C = ends). [ ]: non-standard residue; d: D form. Tle = CC(C)(C)[C@H](N)C(=O)O; dDab = NCC[C@@H](N)C(=O)O; Orn = NCCC[C@H](N)C(=O)O; Dab = NCC[C@H](N)C(=O)O

How the values were obtained:
[1] = tested on: human red blood cells (hRBC); assay: Hemolysis: hemolytic activity at 100 μg/mL, 1 h at 37° C.
Experimental: Lyophilized peptides were weighed on a Microbalance (Mettler MT5) and dissolved in sterile water to a final concentration of 1 mg/mL. Stock solutions were kept at +4° C., light protected.
The peptides were tested for their hemolytic activity against human red blood cells (hRBC). Fresh hRBC were washed three times with phosphate buffered saline (PBS) and centrifuged for 5 min at 3000×g. Compounds (100 μg/mL) were incubated with 20% hRBC (v/v) for 1 h at 37° C. and shaking at 300 rpm. The final erythrocyte concentration was approximately 0.9×10^9 cells/mL. A value of 0% and 100% cell lyses, respectively, was determined by incubation of hRBC in the presence of PBS containing 0.001% acetic acid and 2.5% Triton X-100 in H2O, respectively. The samples were centrifuged, the supernatants were 8-fold diluted in PBS buffer and the optical densities (OD) were measured at 540 nm.
Percent hemolysis was calculated as follows: (OD540peptide/OD540H2O)×100%.

[2] = tested on: Klebsiella pneumoniae ATCC 13883; type: cell-based
Experimental: (§1) Stock solutions were kept at +4° C., light protected.
(§2) The selective antimicrobial activities of the peptides were determined in 96-well plates (Greiner, polystyrene) by the standard NCCLS broth microdilution method (National Committee for Clinical Laboratory Standards 1993. Methods for dilution antimicrobial susceptibility tests for bacteria that grow aerobically, 3rd ed. Approved standard M7-A6; National Committee for Clinical laboratory standards, Wayne, Pa.) with slight modifications. Inocula of the microorganisms were diluted into Mueller-Hinton II (MH, cation adjusted) broth and compared with a 0.5 McFarland standard to give appr. 10^6 colony forming units (CFU)/mL. Aliquots (90 μl) of inoculate were added to 10 μl of MH broth+P-80 (Polysorbate 80, 0.002% final concentration) containing the peptide in serial two-fold dilutions. The following microorganisms were used to determine antibiotic selectivity of the peptides: Escherichia coli ATCC 25922, Klebsiella pneumoniae ATCC 13883 and Acinetobacter baumannii DSM 30008.

[3] = tested on: Escherichia coli ATCC 25922; type: cell-based
Experimental: as §1, §2

[4] = tested on: Acinetobacter baumannii DSM 30008; type: cell-based
Experimental: as §1, §2

[5] = Mueller-Hinton II broth, 18-20 hours at 35° C.

Compound	Hemolysis at 100 μg/mL ([1]; red cells of human, 1 h, 100)	Klebsiella pneumoniae ATCC 13883 MIC ([2]; ATCC 13883)	Escherichia coli ATCC 25922 MIC ([3]; ATCC 25922)	Acinetobacter baumannii DSM 30008 MIC ([4]; DSM 30008)	Hemolysis at 100 μg/mL ([1]; red cells of human, 1 h, 100 μg/mL)	Hemolysis at 100 μg/mL ([1]; 100 μg/mL, 20% hRBC, 1 h at 37° C.)	Klebsiella pneumoniae ATCC 13883 MIC [2, 5]	Escherichia coli ATCC 25922 MIC [3, 5]	Acinetobacter baumannii DSM 30008 MIC [4, 5]
CC(C)C[C@@H]1NC(=O)[C@H](CCCNC(=N)N)NC(=O)[C@H]2CCCN2C(=O)[C@H](C(C)C)NC(=O)[C@@H]2CSSC[C@H](NC1=O)C(=O)N[C@@H](Cc1ccc(O)cc1)C(=O)N[C@@H](CC(N)=O)C(=O)N[C@@H](CCCN)C(=O)N[C@H](CCN)C(=O)N[C@@H](CCN)C(=O)N[C@@H](Cc1c[nH]c3ccccc13)C(=O)N[C@@H](CCN)C(=O)N[C@@H](Cc1ccc(O)cc1)C(=O)N2 [Example 78, cyclo(-Leu-Cys-Tyr-Asn-Orn-^DDab-Dab-Trp-Dab-Tyr-Cys-Val-^DPro-Arg-)] (HELM PEPTIDE1{C.V.[dP].R.L.C.Y.N.[Orn].[NCC[C@@H](N[*:1])C(=O)[*:2]].[Dab].W.[Dab].Y}$PEPTIDE1,PEPTIDE1,1:R3-6:R3|PEPTIDE1,PEPTIDE1,1:R1-14:R2$$$V2.0)	1%	1 µg/mL	1.5 µg/mL	1.5 µg/mL	–	–	–	–	–
CC(C)C[C@@H]1NC(=O)[C@H](CCCNC(=N)N)NC(=O)[C@H]2CCCN2C(=O)[C@H](C(C)C)NC(=O)[C@@H]2CSSC[C@H](NC1=O)C(=O)N[C@@H](Cc1ccc(O)cc1)C(=O)N[C@H]1CSSC[C@H](NC(=O)[C@H](Cc3c[nH]c4ccccc34)NC(=O)[C@H](CCN)NC(=O)[C@@H](CCN)NC(=O)[C@H](CCN)NC1=O)C(=O)N[C@@H](Cc1ccc(O)cc1)C(=O)N2 [Example 43, cyclo(-Leu-Cys-Tyr-Cys-Dab-^DDab-Dab-Trp-Cys-Tyr-Cys-Val-^DPro-Arg-)] (HELM PEPTIDE1{C.[Dab].[NCC[C@@H](N[*:1])C(=O)[*:2]].[Dab].W.C.Y.C.V.[dP].R.L.C.Y}$PEPTIDE1,PEPTIDE1,1:R3-6:R3|PEPTIDE1,PEPTIDE1,8:R3-13:R3|PEPTIDE1,PEPTIDE1,1:R1-14:R2$$$V2.0)	–	2 µg/mL	4 µg/mL	1 µg/mL	2%	–	–	–	–
CC(C)C[C@@H]1NC(=O)[C@H](CCCNC(=N)N)NC(=O)[C@@H](CCN)NC(=O)[C@H](C)NC(=O)[C@@H]2CSSC[C@H](NC1=O)C(=O)N[C@@H](Cc1ccc(O)cc1)C(=O)N[C@@H](CC(N)=O)C(=O)N[C@@H](CCCN)C(=O)N[C@H](CCN)C(=O)N[C@@H](CCN)C(=O)N[C@@H](Cc1c[nH]c3ccccc13)C(=O)N[C@@H](CO)C(=O)N[C@@H](Cc1ccc(O)cc1)C(=O)N2 [Example 71, cyclo(-Leu-Cys-Tyr-Asn-Orn-^DDab-Dab-Trp-Ser-Tyr-Cys-Ala-^DDab-Arg-)] (HELM PEPTIDE1{A.[NCC[C@@H](N[*:1])C(=O)[*:2]].R.L.C.Y.N.[Orn].[NCC[C@@H](N[*:1])C(=O)[*:2]].[Dab].W.S.Y.C}$PEPTIDE1,PEPTIDE1,5:R3-14:R3|PEPTIDE1,PEPTIDE1,1:R1-14:R2$$$V2.0)	1%	1 µg/mL	1.5 µg/mL	1.5 µg/mL	–	–	–	–	–
CC(C)C[C@@H]1NC(=O)[C@H](CCCNC(=N)N)NC(=O)[C@@H](CCN)NC(=O)[C@H](C(C)C)NC(=O)[C@@H]2CSSC[C@H](NC1=O)C(=O)N[C@@H](Cc1ccc(O)cc1)C(=O)N[C@@H](CO)C(=O)N[C@@H](CCCN)C(=O)N[C@H](CCN)C(=O)N[C@@H](CCN)C(=O)N[C@@H](Cc1c[nH]c3ccccc13)C(=O)N[C@@H](CC(N)=O)C(=O)N[C@@H](Cc1ccc(O)cc1)C(=O)N2 [Example 52, cyclo(-Leu-Cys-Tyr-Ser-Orn-^DDab-Dab-Trp-Asn-Tyr-Cys-Val-^DDab-Arg-)] (HELM PEPTIDE1{C.V.[NCC[C@@H](N[*:1])C(=O)[*:2]].R.L.C.Y.S.[Orn].[NCC[C@@H](N[*:1])C(=O)[*:2]].[Dab].W.N.Y}$PEPTIDE1,PEPTIDE1,1:R3-6:R3|PEPTIDE1,PEPTIDE1,1:R1-14:R2$$$V2.0)	1%	1.5 µg/mL	0.75 µg/mL	1.25 µg/mL	–	–	–	–	–
CC(C)C[C@@H]1NC(=O)[C@H](CCN)NC(=O)[C@@H](CCN)NC(=O)[C@H]([C@@H](C)O)NC(=O)[C@@H]2CSSC[C@H](NC1=O)C(=O)N[C@@H](Cc1ccc(O)cc1)C(=O)N[C@@H](CC(N)=O)C(=O)N[C@@H](CCCN)C(=O)N[C@H](CCN)C(=O)N[C@@H](CCN)C(=O)N[C@@H](Cc1c[nH]c3ccccc13)C(=O)N[C@@H](CO)C(=O)N[C@@H](C(C)(C)C)C(=O)N2 [Example 6, cyclo(-Leu-Cys-Tyr-Asn-Orn-^DDab-Dab-Trp-Ser-tBuGly-Cys-Thr-^DDab-Dab-)] (cyclo(CT[dDab][Dab]LCYN[Orn][dDab][Dab]WS[Tle]); disulfide 1-6)	–	–	–	–	–	5%	0.5 µg/mL	0.5 µg/mL	0.5 µg/mL
CC(C)C[C@@H]1NC(=O)[C@H](CCCNC(=N)N)NC(=O)[C@@H](CCCCN)NC(=O)[C@H](C(C)C)NC(=O)[C@@H]2CSSC[C@H](NC1=O)C(=O)N[C@@H](Cc1ccc(O)cc1)C(=O)N[C@@H](CC(N)=O)C(=O)N[C@@H](CCCN)C(=O)N[C@H](CCN)C(=O)N[C@@H](CCN)C(=O)N[C@@H](Cc1c[nH]c3ccccc13)C(=O)N[C@@H](CO)C(=O)N[C@@H](Cc1ccc(O)cc1)C(=O)N2 [Example 65, cyclo(-Leu-Cys-Tyr-Asn-Orn-^DDab-Dab-Trp-Ser-Tyr-Cys-Val-^DLys-Arg-)] (HELM PEPTIDE1{C.V.[dK].R.L.C.Y.N.[Orn].[NCC[C@@H](N[*:1])C(=O)[*:2]].[Dab].W.S.Y}$PEPTIDE1,PEPTIDE1,1:R3-6:R3|PEPTIDE1,PEPTIDE1,1:R1-14:R2$$$V2.0)	1%	1 µg/mL	2 µg/mL	1.25 µg/mL	–	–	–	–	–
CC(C)C[C@@H]1NC(=O)[C@H](CCCNC(=N)N)NC(=O)[C@@H](CCN)NC(=O)[C@H]([C@@H](C)O)NC(=O)[C@@H]2CCNC(=O)C[C@H](NC1=O)C(=O)N[C@@H](Cc1ccc(O)cc1)C(=O)N[C@@H](CC(N)=O)C(=O)N[C@@H](CCCN)C(=O)N[C@H](CCN)C(=O)N[C@@H](CCN)C(=O)N[C@@H](Cc1c[nH]c3ccccc13)C(=O)N[C@@H](CO)C(=O)N[C@@H](C(C)(C)C)C(=O)N2 [Example 75, cyclo(-Leu-Asp-Tyr-Asn-Orn-^DDab-Dab-Trp-Ser-tBuGly-Dab-Thr-^DDab-Arg-)] (cyclo(LDYN[Orn][dDab][Dab]WS[Tle][Dab]T[dDab]R); lactam 2-11)	1%	1 µg/mL	1.5 µg/mL	1.5 µg/mL	–	–	–	–	–
CC(C)C[C@@H]1NC(=O)[C@H](CCCNC(=N)N)NC(=O)[C@@H](CCN)NC(=O)[C@H](CC(C)C)NC(=O)[C@@H]2CSSC[C@H](NC1=O)C(=O)N[C@@H](Cc1ccc(O)cc1)C(=O)N[C@@H](CC(N)=O)C(=O)N[C@@H](CCCN)C(=O)N[C@H](CCN)C(=O)N[C@@H](CCN)C(=O)N[C@@H](Cc1c[nH]c3ccccc13)C(=O)N[C@@H](CO)C(=O)N[C@@H](Cc1ccc(O)cc1)C(=O)N2 [Example 63, cyclo(-Leu-Cys-Tyr-Asn-Orn-^DDab-Dab-Trp-Ser-Tyr-Cys-Leu-^DDab-Arg-)] (HELM PEPTIDE1{C.L.[NCC[C@@H](N[*:1])C(=O)[*:2]].R.L.C.Y.N.[Orn].[NCC[C@@H](N[*:1])C(=O)[*:2]].[Dab].W.S.Y}$PEPTIDE1,PEPTIDE1,1:R3-6:R3|PEPTIDE1,PEPTIDE1,1:R1-14:R2$$$V2.0)	3%	0.75 µg/mL	1 µg/mL	0.625 µg/mL	–	–	–	–	–
CC[C@H](C)[C@@H]1NC(=O)[C@H](CCCNC(=N)N)NC(=O)[C@@H](CCN)NC(=O)[C@H](CO)NC(=O)[C@@H]2CSSC[C@H](NC1=O)C(=O)N[C@@H](Cc1ccc(O)cc1)C(=O)N[C@@H](CCN)C(=O)N[C@@H](CCCN)C(=O)N[C@H](CCN)C(=O)N[C@@H](CCN)C(=O)N[C@@H](Cc1c[nH]c3ccccc13)C(=O)N[C@@H](CCN)C(=O)N[C@@H](C(C)(C)C)C(=O)N2 [Example 12, cyclo(-Ile-Cys-Tyr-Dab-Orn-^DDab-Dab-Trp-Dab-tBuGly-Cys-Ser-^DDab-Arg-)] (cyclo(CS[dDab]RICY[Dab][Orn][dDab][Dab]W[Dab][Tle]); disulfide 1-6)	1%	1 µg/mL	0.5 µg/mL	1 µg/mL	–	–	–	–	–
